Literature values, collected in patent US20110038802A1, “METHOD OF DETERMINING ALANINE TRANSAMINASE (ALT) ACTIVITY BY 13C-MR DETECTION USING HYPERPOLARISED 13C-PYRUVATE” (priority 2008, published 2011).

Conditions: human full blood, 37° C.

T1 relaxation: about 42 s
SMILES: CC(=O)C(=O)O [^13C1-pyruvate, sodium ^13C1-pyruvate]
